{
  "source": "patent US20250129070A1",
  "about": "“BIFUNCTIONAL ANDROGEN RECEPTOR COMPOUNDS” (priority 2023, published 2025)",
  "assay_type_in_all_cases": "cell-based",
  "key": {"AR / CBP ternary complex": {"system": "AR / CBP ternary complex", "assay": "Ternary complex formation assay (sandwich ELISA, AR capture / CBP detection) in VCaP cell lysates", "conditions": "1.5 hours treatment, sandwich ELISA (AR capture, CBP or p300 detection)", "how_it_was_run": "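Anti-AR (AR 441)-coated plates capture AR from lysates of VCaP cells grown ≥3 days at 50K/well in 5% charcoal-stripped FBS, dosed with bifunctional for 1.5 h and lysed 30 min at 4 °C. Co-captured CBP/p300 is probed with rabbit mAb and HRP anti-rabbit, then QuantaRed fluorescence (570/585) is read at 0, 5 and 15 min.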"}, "VCaP cells": {"system": "VCaP cells", "assay": "VCaP growth inhibition assay", "conditions": "30 pM R1881, 9 days, CTG", "how_it_was_run": "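Growth read by CTG luminescence after 9-day exposure to compound (final 100 nM–10 fM, 1:5 steps) plus 30 pM R1881, in phenol red-free DMEM with 5% CSS. Cells pre-incubated 72 h before dosing; IC50 by nonlinear 4-parameter regression.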"}, "HEK-293 cells": {"system": "HEK-293 cells", "assay": "HEK-293 growth inhibition assay", "conditions": "3 days, CTG", "procedure": "Cluster plates are returned to the incubator (37*C/5% CO2) for 24 hours prior to treatment. […] Cluster plates are returned to the incubator for 3 days.\nAfter the 3-day treatment period, 100 uL media was removed from each well by aspiration and 100 uL room temperature CTG reagent (Promega Cat #G7573) is added back to each well. The cluster plates are placed on a shaker and incubated at room temperature for 20 minutes. Following this shaking/incubation, cluster plates are read on a luminometer (BMG ClarioStar). IC50 values are obtained by graphing the RLU data vs. compound concentration with nonlinear regression 4-parameter logistic curves (GraphPad Prism)."}},
  "data": [
    {"smiles": "C[C@@H]1CC(=O)Nc2cccc(-c3ccc4c(c3)c(C3CC3)nn4CCCN3CCN(c4ncc(C(=O)NC5C(C)(C)C(Oc6ccc(C#N)c(Cl)c6)C5(C)C)cn4)CC3)c2N1", "note": "(stereo partly drawn) [Compound 59, N-[3-(3-chloro-4-cyano-phenoxy)-2,2,4,4-tetramethyl-cyclobutyl]-2-[4-[3-[3-cyclopropyl-5-[(4R)-4-methyl-2-oxo-1,3,4,5-tetrahydro-1,5-benzodiazepin-6-yl]indazol-1-yl]propyl]piperazin-1-yl]pyrimidine-5-carboxamide]", "values": [
      {"measurement": "EC50", "setting": "AR / CBP ternary complex", "value": "> 100", "unit": "nM"},
      {"measurement": "IC50", "setting": "VCaP cells", "value": "> 100", "unit": "nM"},
      {"measurement": "IC50", "setting": "HEK-293 cells", "value": "> 10000", "unit": "nM"}
    ]},
    {"smiles": "CC(=O)N1CCc2c(c(Nc3ccc(-c4cnn(C)c4)cc3F)nn2C2CCN(C(=O)CN3CCN(c4ncc(C(=O)NC5C(C)(C)C(Oc6ccc(C#N)c(Cl)c6)C5(C)C)cn4)CC3)CC2)C1", "note": "(stereo not drawn) [Compound 66, 2-[4-[2-[4-[5-acetyl-3-[2-fluoro-4-(1-methylpyrazol-4-yl)anilino]-6,7-dihydro-4H-pyrazolo[4,3-c]pyridin-1-yl]-1-piperidyl]-2-oxo-ethyl]piperazin-1-yl]-N-[3-(3-chloro-4-cyano-phenoxy)-2,2,4,4-tetramethyl-cyclobutyl]pyrimidine-5-carboxamide]", "values": [
      {"measurement": "EC50", "setting": "AR / CBP ternary complex", "value": "< 1", "unit": "nM"},
      {"measurement": "IC50", "setting": "VCaP cells", "value": "0.1 to 1", "unit": "nM"},
      {"measurement": "IC50", "setting": "HEK-293 cells", "value": "> 10000", "unit": "nM"}
    ]},
    {"smiles": "CC(=O)N1CCc2c(c(N3CCCc4cc(-c5cnn(C)c5)c(C(F)F)cc43)nn2C2CN(C(=O)CN3CCN(c4ncc(C(=O)NC5C(C)(C)C(Oc6ccc(C#N)c(Cl)c6)C5(C)C)cn4)CC3)C2)C1", "note": "(stereo not drawn) [Compound 65, 2-[4-[2-[3-[5-acetyl-3-[7-(difluoromethyl)-6-(1-methylpyrazol-4-yl)-3,4-dihydro-2H-quinolin-1-yl]-6,7-dihydro-4H-pyrazolo[4,3-c]pyridin-1-yl]azetidin-1-yl]-2-oxo-ethyl]piperazin-1-yl]-N-[3-(3-chloro-4-cyano-phenoxy)-2,2,4,4-tetramethyl-cyclobutyl]pyrimidine-5-carboxamide]", "values": [
      {"measurement": "EC50", "setting": "AR / CBP ternary complex", "value": "< 1", "unit": "nM"},
      {"measurement": "IC50", "setting": "VCaP cells", "value": "≤ 0.1", "unit": "nM"},
      {"measurement": "IC50", "setting": "HEK-293 cells", "value": "> 10000", "unit": "nM"}
    ]},
    {"smiles": "CNC(=O)N1CCc2c(c(N3CCCc4cc(-c5cnn(C)c5)c(C(F)F)cc43)nn2C2CCN(C(=O)COCCCOCC3CCN(c4ncc(C(=O)NC5C(C)(C)C(Oc6ccc(C#N)c(Cl)c6)C5(C)C)cn4)CC3)CC2)C1", "note": "(stereo not drawn) [Compound 97, 1-[1-[2-[3-[[1-[5-[[3-(3-chloro-4-cyano-phenoxy)-2,2,4,4-tetramethyl-cyclobutyl]carbamoyl]pyrimidin-2-yl]-4-piperidyl]methoxy]propoxy]acetyl]-4-piperidyl]-3-[7-(difluoromethyl)-6-(1-methylpyrazol-4-yl)-3,4-dihydro-2H-quinolin-1-yl]-N-methyl-6,7-dihydro-4H-pyrazolo[4,3-c]pyridine-5-carboxamide]", "values": [
      {"measurement": "EC50", "setting": "AR / CBP ternary complex", "value": "< 1", "unit": "nM"},
      {"measurement": "IC50", "setting": "VCaP cells", "value": "≤ 0.1", "unit": "nM"},
      {"measurement": "IC50", "setting": "HEK-293 cells", "value": "> 10000", "unit": "nM"}
    ]},
    {"smiles": "CNC(=O)N1CCc2c(c(N3CCCc4cc(-c5cnn(C)c5)c(C(F)F)cc43)nn2C2CCN(C(=O)CCN3CCN(c4ncc(C(=O)NC5C(C)(C)C(Oc6ccc(C#N)c(Cl)c6)C5(C)C)cn4)CC3)CC2)C1", "note": "(stereo not drawn) [Compound 108, 1-[1-[3-[4-[5-[[3-(3-chloro-4-cyano-phenoxy)-2,2,4,4-tetramethyl-cyclobutyl]carbamoyl]pyrimidin-2-yl]piperazin-1-yl]propanoyl]-4-piperidyl]-3-[7-(difluoromethyl)-6-(1-methylpyrazol-4-yl)-3,4-dihydro-2H-quinolin-1-yl]-N-methyl-6,7-dihydro-4H-pyrazolo[4,3-c]pyridine-5-carboxamide]", "values": [
      {"measurement": "EC50", "setting": "AR / CBP ternary complex", "value": "< 1", "unit": "nM"},
      {"measurement": "IC50", "setting": "VCaP cells", "value": "≤ 0.1", "unit": "nM"},
      {"measurement": "IC50", "setting": "HEK-293 cells", "value": "> 10000", "unit": "nM"}
    ]},
    {"smiles": "CC(=O)N1CCc2c(c(-c3cccc4cc(-c5ccc(C(=O)NCc6ncc(C(=O)NC7C(C)(C)C(Oc8ccc(C#N)c(Cl)c8)C7(C)C)cn6)nc5)ncc34)nn2C2CCOCC2)C1", "note": "(stereo not drawn) [Compound 79, 2-[[[5-[8-(5-acetyl-1-tetrahydropyran-4-yl-6,7-dihydro-4H-pyrazolo[4,3-c]pyridin-3-yl)-3-isoquinolyl]pyridine-2-carbonyl]amino]methyl]-N-[3-(3-chloro-4-cyano-phenoxy)-2,2,4,4-tetramethyl-cyclobutyl]pyrimidine-5-carboxamide]", "values": [
      {"measurement": "EC50", "setting": "AR / CBP ternary complex", "value": "< 1", "unit": "nM"},
      {"measurement": "IC50", "setting": "VCaP cells", "value": "0.1 to 1", "unit": "nM"},
      {"measurement": "IC50", "setting": "HEK-293 cells", "value": "> 10000", "unit": "nM"}
    ]},
    {"smiles": "CNC(=O)N1CCc2c(c(N3CCCc4cc(-c5cnn(C)c5)c(C(F)F)cc43)nn2C2CCN(CCc3ncc(C(=O)NC4C(C)(C)C(Oc5ccc(C#N)c(Cl)c5)C4(C)C)cn3)CC2)C1", "note": "(stereo not drawn) [Compound 90, 1-[1-[2-[5-[[3-(3-chloro-4-cyano-phenoxy)-2,2,4,4-tetramethyl-cyclobutyl]carbamoyl]pyrimidin-2-yl]ethyl]-4-piperidyl]-3-[7-(difluoromethyl)-6-(1-methylpyrazol-4-yl)-3,4-dihydro-2H-quinolin-1-yl]-N-methyl-6,7-dihydro-4H-pyrazolo[4,3-c]pyridine-5-carboxamide]", "values": [
      {"measurement": "EC50", "setting": "AR / CBP ternary complex", "value": "< 1", "unit": "nM"},
      {"measurement": "IC50", "setting": "VCaP cells", "value": "> 100", "unit": "nM"},
      {"measurement": "IC50", "setting": "HEK-293 cells", "value": 2160, "unit": "nM"}
    ]},
    {"smiles": "CC(=O)N1CCc2c(c(N3CCCc4cc(-c5cnn(C)c5)c(C(F)F)cc43)nn2C2CCN(C(=O)CN3CCN(c4ncc(C(=O)NC5C(C)(C)C(Oc6ccc(C#N)c(Cl)c6)C5(C)C)cn4)CC3)C2)C1", "note": "(stereo not drawn) [Compound 64, 2-[4-[2-[3-[5-acetyl-3-[7-(difluoromethyl)-6-(1-methylpyrazol-4-yl)-3,4-dihydro-2H-quinolin-1-yl]-6,7-dihydro-4H-pyrazolo[4,3-c]pyridin-1-yl]pyrrolidin-1-yl]-2-oxo-ethyl]piperazin-1-yl]-N-[3-(3-chloro-4-cyano-phenoxy)-2,2,4,4-tetramethyl-cyclobutyl]pyrimidine-5-carboxamide]", "values": [
      {"measurement": "EC50", "setting": "AR / CBP ternary complex", "value": "< 1", "unit": "nM"},
      {"measurement": "IC50", "setting": "VCaP cells", "value": "0.1 to 1", "unit": "nM"},
      {"measurement": "IC50", "setting": "HEK-293 cells", "value": "> 10000", "unit": "nM"}
    ]},
    {"smiles": "COc1cc(OC2C(C)(C)C(NC(=O)c3ccc(N4CC(C)C(CN5CCC(n6nc(N7CCCc8cc(-c9cnn(C)c9)c(C(F)F)cc87)c7c6CCN(C(C)=O)C7)CC5)C(C)C4)cc3)C2(C)C)ccc1C#N", "note": "(stereo not drawn) [Compound 327, 4-[4-[[4-[5-acetyl-3-[7-(difluoromethyl)-6-(1-methylpyrazol-4-yl)-3,4-dihydro-2H-quinolin-1-yl]-6,7-dihydro-4H-pyrazolo[4,3-c]pyridin-1-yl]-1-piperidyl]methyl]-3,5-dimethyl-1-piperidyl]-N-[3-(4-cyano-3-methoxy-phenoxy)-2,2,4,4-tetramethyl-cyclobutyl]benzamide]", "values": [
      {"measurement": "EC50", "setting": "AR / CBP ternary complex", "value": "< 1", "unit": "nM"},
      {"measurement": "IC50", "setting": "VCaP cells", "value": "0.1 to 1", "unit": "nM"},
      {"measurement": "IC50", "setting": "HEK-293 cells", "value": "> 1000", "unit": "nM"}
    ]},
    {"smiles": "CNC(=O)N1CCc2c(c(N3CCCc4cc(-c5cnn(C)c5)c(C(F)F)cc43)nn2C2CCN(C(=O)COCCOCCN3CCN(c4ncc(C(=O)NC5C(C)(C)C(Oc6ccc(C#N)c(Cl)c6)C5(C)C)cn4)CC3)CC2)C1", "note": "(stereo not drawn) [Compound 103, 1-[1-[2-[2-[2-[4-[5-[[3-(3-chloro-4-cyano-phenoxy)-2,2,4,4-tetramethyl-cyclobutyl]carbamoyl]pyrimidin-2-yl]piperazin-1-yl]ethoxy]ethoxy]acetyl]-4-piperidyl]-3-[7-(difluoromethyl)-6-(1-methylpyrazol-4-yl)-3,4-dihydro-2H-quinolin-1-yl]-N-methyl-6,7-dihydro-4H-pyrazolo[4,3-c]pyridine-5-carboxamide]", "values": [
      {"measurement": "EC50", "setting": "AR / CBP ternary complex", "value": "< 1", "unit": "nM"},
      {"measurement": "IC50", "setting": "VCaP cells", "value": "0.1 to 1", "unit": "nM"},
      {"measurement": "IC50", "setting": "HEK-293 cells", "value": "> 10000", "unit": "nM"}
    ]}
  ]
}
